Reference: patent US10604509B2, “Nrf2 regulators” (GlaxoSmithKline Intellectual Property Development Limited, priority 2015, dated 2020)
Where a name gives a salt, the structure may show the parent alone. Read-outs that look alike come from different tables or passages of the source.

Tested on: NQO1 specific enzyme activity in BEAS-2B cells
Assay: BEAS-2B NQO1 MTT assay
Format: cell-based
Details: BEAS-2B cells, 48 hours with compound, MTT readout, read-out: EC50 of NQO1 specific activity induction
From the text: NAD(P)H:quinone oxidoreductase 1 (NQO1), also called DT diaphorase, is a homodimeric FAD-containing enzyme that catalyzes obligatory NAD(P)H-dependent two-electron reductions of quinones and protects cells against the toxic and neoplastic effects of free radicals and reactive oxygen species arising from one-electron reductions. The transcription of NQO1 is finely regulated by NRF2, and thus NQO1 activity is a good marker for NRF2 activation. On day one, frozen BEAS-2B cells (ATCC) are thawed in a water bath, counted, and re-suspended at a concentration of 250,000 cells/mL. Fifty microliters of cells are plated in 384 well black clear-bottomed plates. Plates are incubated at 37° C., 5% CO2 overnight. On day two, plates are centrifuged and 50 nL of compound or controls are added to the cells. Plates are then incubated at 37° C., 5% CO2 for 48 hours. On day four, medium is aspirated from the plate and crude cell lysates are made by adding 13 uL of 1× Cell Signaling Technologies lysis buffer with 1 Complete, Mini, EDTA-free Protease Inhibitor Tablet (Roche) for each 10 mL of lysis buffer. After lysis plates are incubated for 20 minutes at room temperature. Two microliters of lysate are removed for use in Cell Titer Glo assay (Promega) and MTT cocktail is prepared (Prochaska et. al. 1998) for measurement of NQO1 activity. Fifty microliters of MTT cocktail is added to each well, plate is centrifuged, and analyzed on an Envision plate reader (Perkin Elmer) using Absorbance 570 nm label for 30 minutes. Product formation is measured kinetically and the EC50 of NQO1 specific activity induction is calculated by plotting the change in absorbance (Delta OD/min) versus the log of compound concentration followed by 3-parameter fitting.

Cc1ccc(C(CC(=O)O)c2ccc3c(nnn3C)c2C)cc1CN1CCc2cnc(C(C)C)nc2C1 (centres unmarked) [Example 11, Ammonium 3-(1,4-dimethyl-1H-benzo[d][1,2,3]triazol-5-yl)-3-(3-((2-isopropyl-5,6-dihydropyrido[3,4-d]pyrimidin-7(8H)-yl)methyl)-4-methylphenyl)propanoate]
EC50 (Homo sapiens, BEAS-2B, 48 h): 1000 to 10000 nM

Cc1ccc2c(c1)CN(Cc1cc([C@@H](CC(=O)O)c3ccc4c(nnn4C)c3C)ccc1C)CC(C)(C)O2 [Example 175, (R)-3-(1,4-Dimethyl-1H-benzo[d][1,2,3]triazol-5-yl)-3-(4-methyl-3-((2,2,7-trimethyl-2,3-dihydrobenzo[f][1,4]oxazepin-4(5H)-yl)methyl)phenyl)propanoic Acid]
EC50 (Homo sapiens, BEAS-2B, 48 h): 10 to 100 nM

Cc1ccc(C(c2ccc3c(nnn3C)c2C)C(C)(C)C(=O)O)cc1Cc1cnnn1CC1CCCCCC1 (single isomer, unassigned) [Example 241]
EC50 (Homo sapiens, BEAS-2B, 48 h): < 1 nM

CC[C@@H]1CN(Cc2cc([C@@H](c3ccc4c(nnn4C)c3C)C(C)(C)C(=O)O)ccc2C)Cc2ncccc2O1 [Example 218, (S)-3-(1,4-Dimethyl-1H-benzo[d][1,2,3]triazol-5-yl)-3-(3-(((R)-2-ethyl-2,3-dihydropyrido[2,3-f][1,4]oxazepin-4(5H)-yl)methyl)-4-methylphenyl)-2,2-dimethylpropanoic Acid, Trifluoroacetate]
EC50 (Homo sapiens, BEAS-2B, 48 h): 1 to 10 nM

CCn1nnc2c(C)c([C@H](c3ccc(C)c(CN4Cc5cnccc5OC(C)(C)C4)c3)[C@@H](C)C(=O)O)ccc21 [Example 196, (2R,3S)-3-(3-((2,2-Dimethyl-2,3-dihydropyrido[3,4-f][1,4]oxazepin-4(5H)-yl)methyl)-4-methylphenyl)-3-(1-ethyl-4-methyl-1H-benzo[d][1,2,3]triazol-5-yl)-2-methylpropanoic acid, Trifluoroacetic acid salt]
EC50 (Homo sapiens, BEAS-2B, 48 h): 1 to 10 nM

Cc1ccc([C@@H](CC(=O)O)c2ccc3c(nnn3C)c2C)cc1CN1CCCC(n2cccn2)C1 (single isomer, unassigned; isomer 2) [Example 158]
EC50: 1000 to 10000 nM

CCC1CCN(Cc2nccn2Cc2cc([C@@H](c3ccc4c(nnn4C)c3C)C(C)(C)C(=O)O)ccc2C)CC1 [Example 122, (S)-3-(1,4-Dimethyl-1H-benzo[d][1,2,3]triazol-5-yl)-3-(3-((2-((4-ethylpiperidin-1-yl)methyl)-1H-imidazol-1-yl)methyl)-4-methylphenyl)-2,2-dimethylpropanoate, Sodium salt]
EC50 (Homo sapiens, BEAS-2B, 48 h): 10 to 100 nM

Cc1ccc(C(c2ccc3c(nnn3C)c2C)C(C)(C)C(=O)O)cc1CN1Cc2cnccc2OC(C)(C)C1 (centres unmarked) [Example 22, 3-(1,4-Dimethyl-1H-benzo[d][1,2,3]triazol-5-yl)-3-(3-((2,2-dimethyl-2,3-dihydropyrido[3,4-f][1,4]oxazepin-4(5H)-yl)methyl)-4-methylphenyl)-2,2-dimethylpropanoic Acid, Trifluoroacetic Acid]
EC50 (Homo sapiens, BEAS-2B, 48 h): 1 to 10 nM

CCC1CN(Cc2cc([C@@H](CC(=O)O)c3ccc4c(nnn4C)c3C)ccc2C)Cc2ccccc2O1 (stereo partly drawn) [Example 6, (3R)-3-(1,4-Dimethyl-1H-benzo[d][1,2,3]triazol-5-yl)-3-(3-((2-ethyl-2,3-dihydrobenzo[f][1,4]oxazepin-4(5H)-yl)methyl)-4-methylphenyl)propanoic Acid, Trifluoroacetic Acid Salt]
EC50 (Homo sapiens, BEAS-2B, 48 h): 100 to 1000 nM

Cc1ccc([C@@H](CC(=O)O)c2ccc3c(nnn3C)c2C)cc1CN1Cc2ccccc2OC(C)(C)C1 [Example 110, (R)-3-(1,4-dimethyl-1H-benzo[d][1,2,3]triazol-5-yl)-3-(3-((2,2-dimethyl-2,3-dihydrobenzo[f][1,4]oxazepin-4(5H)-yl)methyl)-4-methylphenyl)propanoic Acid, Formic Acid Salt]
EC50 (Homo sapiens, BEAS-2B, 48 h): < 1 nM

CC[C@@H]1CN(Cc2cc(C(CC(=O)O)c3ccc4c(nnn4C)c3C)ccc2C)Cc2cnccc2O1 (stereo partly drawn) [Example 86, 3-(1,4-Dimethyl-1H-benzo[d][1,2,3]triazol-5-yl)-3-(3-(((R)-2-ethyl-2,3-dihydropyrido[3,4-f][1,4]oxazepin-4(5H)-yl)methyl)-4-methylphenyl)propanoic acid]
EC50 (Homo sapiens, BEAS-2B, 48 h): 100 to 1000 nM

CC[C@@H]1CN(Cc2cc([C@@H](c3ccc4c(nnn4C)c3C)[C@H](C)C(=O)O)ccc2C)Cc2ccccc2O1 [Example 41, (2S,3S)-3-(1,4-Dimethyl-1H-benzo[d][1,2,3]triazol-5-yl)-3-(3-(((R)-2-ethyl-2,3-dihydrobenzo[f][1,4]oxazepin-4(5H)-yl)methyl)-4-methylphenyl)-2-methylpropanoic Acid]
EC50 (Homo sapiens, BEAS-2B, 48 h): 100 to 1000 nM

Cc1ccc(C(c2ccc3c(nnn3C)c2C)C(C)(C)C(=O)O)cc1CN1Cc2cccnc2OC(C)(C)C1 (centres unmarked) [Example 23, 3-(1,4-Dimethyl-1H-benzo[d][1,2,3]triazol-5-yl)-3-(3-((2,2-dimethyl-2,3-dihydropyrido[3,2-f][1,4]oxazepin-4(5H)-yl)methyl)-4-methylphenyl)-2,2-dimethylpropanoic Acid, Trifluoroacetic Acid]
EC50 (Homo sapiens, BEAS-2B, 48 h): 10 to 100 nM

Cc1ccc([C@@H](c2ccc3c(nnn3C)c2C)C(C)(C)C(=O)O)cc1Cn1ccnc1CC1CCCCCC1 [Example 235, (S)-3-(3-((2-(Cycloheptylmethyl)-1H-imidazol-1-yl)methyl)-4-methylphenyl)-3-(1,4-dimethyl-1H-benzo[d][1,2,3]triazol-5-yl)-2,2-dimethylpropanoic Acid]
EC50 (Homo sapiens, BEAS-2B, 48 h): < 1 nM

CCC1CCN(Cc2nccn2Cc2cc([C@@H](c3ccc4c(nnn4C)c3C)C(C)(C)C(=O)O)ccc2Cl)CC1 [Example 237, (S)-3-(4-Chloro-3-((2-((4-ethylpiperidin-1-yl)methyl)-1H-imidazol-1-yl)methyl)phenyl)-3-(1,4-dimethyl-1H-benzo[d][1,2,3]triazol-5-yl)-2,2-dimethylpropanoic Acid]
EC50 (Homo sapiens, BEAS-2B, 48 h): < 1 nM

Cc1ccc(C(CC(=O)O)c2ccc3c(nnn3C)c2C)cc1Cc1nnnn1CC1CCCCC1 (centres unmarked) [Example 134, 3-(3-((1-(Cyclohexylmethyl)-1H-tetrazol-5-yl)methyl)-4-methylphenyl)-3-(1,4-dimethyl-1H-benzo[d][1,2,3]triazol-5-yl)propanoic acid, hydrochloride salt]
EC50 (Homo sapiens, BEAS-2B, 48 h): 100 to 1000 nM

Cc1ccc(C(CC(=O)O)c2ccc3c(nnn3C)c2C)cc1Cn1ccnc1CN1CCCCCC1 (centres unmarked) [Example 147, 3-(3-((2-(Azepan-1-ylmethyl)-1H-imidazol-1-yl)methyl)-4-methylphenyl)-3-(1,4-dimethyl-1H-benzo[d][1,2,3]triazol-5-yl)propanoic acid, formic acid salt]
EC50 (Homo sapiens, BEAS-2B, 48 h): 1000 to 10000 nM

Cc1ccc(C(CC(=O)O)c2ccc3c(nnn3C)c2C)cc1CN1Cc2cccnc2OC(C)(C)C1 (centres unmarked) [Example 96, 3-(1,4-Dimethyl-1H-benzo[d][1,2,3]triazol-5-yl)-3-(3-((2,2-dimethyl-2,3-dihydropyrido[3,2-f][1,4]oxazepin-4(5H)-yl)methyl)-4-methylphenyl)propanoic Acid]
EC50 (Homo sapiens, BEAS-2B, 48 h): 100 to 1000 nM

Cc1ccc([C@H](CC(=O)O)c2ccc3c(nnn3C)c2C)cc1CN1Cc2ccccc2OC(C)(C)C1 [Example 109, (S)-3-(1,4-dimethyl-1H-benzo[d][1,2,3]triazol-5-yl)-3-(3-((2,2-dimethyl-2,3-dihydrobenzo[f][1,4]oxazepin-4(5H)-yl)methyl)-4-methylphenyl)propanoic Acid, Formic Acid Salt]
EC50 (Homo sapiens, BEAS-2B, 48 h): 100 to 1000 nM

CC[C@@H]1CN(Cc2cc(C(c3ccc4c(nnn4C)c3C)C(C)(C)C(=O)O)ccc2C)Cc2cc(F)ccc2O1 (stereo partly drawn) [Example 32, 3-(1,4-Dimethyl-1H-benzo[d][1,2,3]triazol-5-yl)-3-(3-(((R)-2-ethyl-7-fluoro-2,3-dihdyrobenzo[f][1,4]oxaz-epin-4(5H)-yl)methyl)-4-methylphenyl)-2,2-dimethylpropanoic acid, formic acid salt]
EC50 (Homo sapiens, BEAS-2B, 48 h): 1 to 10 nM

CCCn1cc(CCC(CC(=O)O)c2ccc(C)c(CN3CCCC(n4cccn4)C3)c2)nn1 (centres unmarked) [Example 163, 3-(3-((3-(1H-pyrazol-1-yl)piperidin-1-yl)methyl)-4-methylphenyl)-5-(1-propyl-1H-1,2,3-triazol-4-yl)pentanoic Acid, Formic Acid Salt]
EC50 (Homo sapiens, BEAS-2B, 48 h): 1000 to 10000 nM

Cc1ccc([C@H](CC(=O)O)c2ccc3c(nnn3C)c2C)cc1CN1Cc2cc(F)ccc2OC(C)(C)C1 [Example 62, (S)-3-(1,4-Dimethyl-1H-benzo[d][1,2,3]triazol-5-yl)-3-(3-((7-fluoro-2,2-dimethyl-2,3-dihydrobenzo[f][1,4]oxazepin-4(5H)-yl)methyl)-4-methylphenyl)propanoic acid, 1.5formic acid salt]
EC50 (Homo sapiens, BEAS-2B, 48 h): 10 to 100 nM

CC[C@@H]1CN(Cc2cc([C@@H](c3ccc4c(nnn4C)c3C)C(C)(C)C(=O)OCOC(=O)C(C)(C)C)ccc2C)Cc2cnccc2O1 [Example 253, (S)-(Pivaloyloxy)methyl 3-(1,4-dimethyl-1H-benzo[d][1,2,3]triazol-5-yl)-3-(3-(((R)-2-ethyl-2,3-dihydropyrido[3,4-f][1,4]oxazepin-4(5H)-yl)methyl)-4-methylphenyl)-2,2-dimethylpropanoate]
EC50 (Homo sapiens, BEAS-2B, 48 h): < 1 nM
